Key:
[1] = test system: Btk responsive site (Tyr1217) on PLCγ2; test: PLCγ2 phosphorylation in Ramos cells; assay type: cell-based; settings: human Burkitt lymphoma cell line, read-out: EC50, inhibition of phosphorylation of the Btk responsive site (Tyr1217) on PLCγ2
[2] = test system: relapsed/refractory CLL; settings: lenalidomide 25 mg for 21 days of every 28-day cycle; cited from earlier work

Structure (SMILES) | EC50 [1] | Clinical responses (CR or PR) in subjects refractory to fludarabine [2] | Clinical responses (CR or PR) in subjects with del (11)(q23) and/or del (17)(p13.1) adverse cytogenetics [2]
C=CC(=O)Nc1cccc(Nc2nc(Nc3ccc(OCCOC)cc3)ncc2F)c1 [Compound 1, N-(3-(5-fluoro-2-(4-(2-methoxyethoxy)phenylamino)pyrimidin-4-ylamino)phenyl)acrylamide] | 1 to 10 nM |  | 
Nc1cccc2c1CN(C1CCC(=O)NC1=O)C2=O (stereo not drawn) [lenalidomide, 3-(4-amino-1-oxo-1,3-dihydro-2H-isoindol-2-yl)piperidine-2,6-dione] |  | 30% | 47%

Source: US20140142128A1, “METHODS OF TREATING A DISEASE OR DISORDER ASSOCIATED WITH BRUTON'S TYROSINE KINASE” (Celgene Avilomics Research, Inc., priority 2012, published 2014)
